Experimental data from paper PMC7463582, “Modulation and Protection Effects of Antioxidant Compounds against Oxidant Induced Developmental Toxicity in Zebrafish” (Antioxidants, 2020).
pEC50: −log10 of the molar value. Structures can show the parent of a compound that is named as a salt.

Columns and labels:
[1] = Zebrafish embryo test: lethality and dysmorphogenesis after exposure to a single oxidative stress-related compound; type: in vivo, Zebrafish (Danio rerio); details: zebrafish, in vivo, read-out: LC50 (lethal concentration 50)
Experimental: (§1) To characterize the effects on embryonic development produced by compounds related to OS, ZF embryos were exposed to OS inducers, modulators of antioxidant status and antioxidants. For compounds which were dissolved in DMSO and diluted with Danieau’s buffer, a vehicle negative control group with 0.05% DMSO in 0.3× Danieau’s buffer was assayed.
(§2) From 26 to 50 hpf, embryos were incubated with 0.3× Danieau’s buffer with or without DMSO, depending on the dissolution of the compound of study.
(§3) Exposure to OS inducers was conducted from 26 to 50 hpf to select the working concentrations of these compounds for the experimental design. In this case, from 2 to 26 hpf, embryos were incubated with Danieau’s buffer with or without DMSO, depending on the dissolution of the compound of study.
(§4) Exposure of ZF embryos was semi-static and was carried out in 6-well plates (Greiner Bio-one, Frickenhausen, Germany). Ten embryos per group were selected and randomly distributed into the wells and filled with 5mL of the corresponding solution of the compound. Embryos were incubated at 26 ± 1 °C with a dark–light cycle of 10–14 h. Renewal of the medium and of the solutions was made every 24 h. Evaluation of the embryos was performed at different time points. Lethality was determined at 8, 26, and 50 hpf based on egg coagulation, the absence of tail detachment, or somite formation and the absence of heartbeat. Dysmorphogenic effects were evaluated at 50 hpf by the total morphological score system described by. For each compound of study, at least three independent experiments were performed using embryos from different spawning events (n = 3).
(§5) The percentage of lethality and of dysmorphogenesis was calculated per compound at every tested concentration, and the concentration–response curves for these effects were plotted.

zebrafish embryos [2] = assay: as above; type: in vivo, Zebrafish (Danio rerio); details: for pEC50: read-out: EC50 (effective concentration 50 for dysmorphogenesis)
Experimental: as §1, §2, §3, §4, §5

zebrafish embryos [3] = details: for Change of dysmorphogenic effects of LPS / Mortality of embryos exposed to tBOOH after pre-exposure / Shift of the LPS lethality concentration–effect curve / Shift of the TCHQ concentration–response curves for lethality and dysmorphogenesis / Shift of the tBOOH concentration–response curves (lethality and dysmorphogenesis): pre-exposure to the modulator at MTC; for Change of dysmorphogenic effects of LPS / Shift of the LPS lethality concentration–effect curve: then LPS, versus LPS alone; for Mortality of embryos exposed to tBOOH after pre-exposure / Shift of the tBOOH concentration–response curves (lethality and dysmorphogenesis): then tBOOH; for Shift of the TCHQ concentration–response curves for lethality and dysmorphogenesis: then TCHQ, versus TCHQ alone; for Shift of the tBOOH concentration–response curves (lethality and dysmorphogenesis): versus tBOOH alone
zebrafish embryos [4] = assay: animal or person; details: Danio rerio
zebrafish embryos [5] = assay: animal or person; details: Danio rerio, read-out: EC50 (95% CI) for dysmorphogenesis of tBOOH
in vivo = details: zebrafish
[6] = Danio rerio, exposure window 2–26 hpf, evaluated at 50 hpf
[7] = exposure window 2–26 hpf, not calculated, reason in footnote

Compound	pEC50 (zebrafish embryos [2]; [6])	MTC (maximum tolerable concentration) (zebrafish embryos [2]; exposure window 2–26 hpf) [µM]	Change of dysmorphogenic effects of LPS (zebrafish embryos [3])	Shift of the LPS lethality concentration–effect curve (zebrafish embryos [3])	Shift of the TCHQ concentration–response curves for lethality and dysmorphogenesis (zebrafish embryos [3])	Shift of the tBOOH concentration–response curves (lethality and dysmorphogenesis) (zebrafish embryos [3])	LC50 [1, 7] [µM]	other results
CC(=O)N[C@@H](CS)C(=O)O [N-acetyl-L-cysteine (NAC), N-acetyl-L-cysteine]	3.04	250	no significant effects were observed					LC50 ([1]; exposure window 2–26 hpf): 1870 µM; Mortality of embryos exposed to tBOOH after pre-exposure (zebrafish embryos [3]): no significant effects in mortality of the embryos were observed; LC50 (95% CI) of LPS after pre-exposure to the modulator (zebrafish embryos [3]; zebrafish, in vivo, pH 7.4): 51.6 µg/mL * (48.8–54.5); LC50 (95% CI) of TCHQ after pre-exposure to the modulator (zebrafish embryos [3]; zebrafish, in vivo, pH 7.4): 19.6 µM * (16.6–23.3)
(±)-α-tocopherol [Vit. E]		100						LC50 (zebrafish embryos [2]; exposure window 2–26 hpf, not calculated, reason in footnote, read-out: LC50 (lethal concentration 50)): > 30 µM
CC(C)(C)OO [Tert-butyl hydroperoxide (tBOOH), Tert-butyl hydroperoxide]								pEC50 (zebrafish embryos [2]; Danio rerio, exposure window 26–50 hpf, evaluated at 50 hpf): 2.80; pEC50 (zebrafish embryos [4]; read-out: EC50 (95% CI) for dysmorphogenesis of tBOOH): 2.79; pEC50 (zebrafish embryos [5]): 2.79
CCCCS(=N)(=O)CCC(N)C(=O)O (racemic) [DL-buthionine sulfoximine (BSO), DL-buthionine sulfoximine]		50	no significant effects were observed	shifted the lethality concentration–effect curves significantly	statistically significant drift in the concentration–effect curves for lethality and dysmorphogenesis to lower concentrations of TCHQ	a significant shift in the concentration–response curves to lower concentrations of tBOOH		pEC50 (zebrafish embryos [2]; exposure window 2–26 hpf, evaluated at 50 hpf): 2.57
CCOC(=O)/C=C\C(=O)OCC [Diethyl maleate (DEM), diethyl maleate]	5.82	0.5	no significant effects were observed	shifted the lethality concentration–effect curves significantly	statistically significant drift in the concentration–effect curves for lethality and dysmorphogenesis to lower concentrations of TCHQ	a significant shift in the concentration–response curves to lower concentrations of tBOOH	< 100	
O=c1c(O)c(-c2ccc(O)c(O)c2)oc2cc(O)cc(O)c12 [Quercetin, quercetin hydrate]		20					> 30	
COC(=O)[C@@H](N)CCCNC(N)=N[N+](=O)[O-] [Nω-nitro L-arginine methyl ester hydrochloride]	4.35	5	significant reduction in dysmorphogenic effects	shifted the lethality concentration–effect curves significantly	significantly shifted to higher concentrations of TCHQ	significantly drifted the tBOOH concentration–response curves to higher concentrations	> 100	Mortality of embryos exposed to tBOOH after pre-exposure (zebrafish embryos [3]): no significant effects in mortality of the embryos were observed
Oc1c(Cl)c(Cl)c(O)c(Cl)c1Cl [Tetrachlorohydroquinone (TCHQ), Tetrachlorohydroquinone]								LC50 ([1]; exposure window 26–50 hpf): 16 µM; pEC50 (zebrafish embryos [2]; Danio rerio): 5.41; Compound-specific dysmorphogenic effect (zebrafish embryos [2]; exposure 26–50 hpf): produced an effect in the pigmentation of the embryos; LC50 (in vivo): 15.2 µM; pEC50 (zebrafish embryos [4]; read-out: EC50 (95% CI) for dysmorphogenesis of TCHQ): 5.05
